From patent US20210038602A1, “COMBINATION TREATMENT OF ACUTE MYELOID LEUKEMIA” (Boehringer Ingelheim International GmbH, priority 2018, published 2021)

Tested on: AML cell line MV-4-11B
Assay: IncuCyte live cell imaging assay: cell growth (confluence) and apoptosis (Caspase-3/7 green fluorescence) over time
Format: cell-based
Settings: MV-4-11B cells, single compound treatment, vs DMSO control
Procedure: The analysis is done by the Essen BioScience IncuCyte™ FLR live cell imaging system. It enables observation and quantification of cell behavior over time by automatically gathering and analyzing images around the clock. This live-cell, non-perturbating imaging approach yields kinetic data, all generated within the controlled environment of a standard cell incubator.
MV-4-11B is the AML cell line MV-4-11 from ATCC (CRL-9591) which has achieved a mutation in TP53 (c.742C>T, p.R248W, heterozygous for TP53). MV-4-11B cells were grown in T-75 flasks using RPMI1640 medium supplemented with 10% fetal calf serum and 50 μM mercaptoethanol. Cultures were incubated at 37° C. and 5% CO2 in a humidified atmosphere.
For the IncuCyte live cell imaging assays, cells were plated in 96 well plates, Poly-D-Lysine coated, and were incubated with the respective compounds (BET inhibitor 1-12, volasertib), either alone or in combination. For the detection of apoptotic cells, the Essen BioSciences CellPlayer™ 96 well Kinetic Caspase-3/7 Reagent was added.
To determine cell proliferation, “confluence” (area covered with cells in the wells) was used as readout, to determine the amount of apoptosis (dead cells), the intensity of green fluorescence was used as readout.

## CC[C@@H]1C(=O)N(C)c2cnc(Nc3ccc(C(=O)N[C@H]4CC[C@H](N5CCN(CC6CC6)CC5)CC4)cc3OC)nc2N1C(C)C [volasertib, N-[trans-4-[4-(cyclopropylmethyl)-1-piperazinyl]cyclohexyl]-4-[[(7R)-7-ethyl-5,6,7,8-tetrahydro-5-methyl-8-(1-methylethyl)-6-oxo-2-pteridinyl]amino]-3-methoxy-benzamide]
Over time (FIGS. 1-12 a)
  Cell growth (confluence): reduced in comparison to DMSO control treated cells
Over time (FIGS. 1-12 b)
  Apoptosis (Caspase-3/7 green fluorescence): increased in comparison to DMSO control treated cells
